# Reference: US9802990B2, “Functional peptides for obesity disorders” (DANONE, S.A., priority 2013, dated 2017)
# Read-outs that look alike come from different tables or passages of the source. Where no end group is shown, it is not given here.
# Columns and labels:
# [1] = tested on: soy glycinin; assay: Protease activity of LAB strains (supernatant and cells); assay type: biochemical; conditions: for Protease activity cell: cells; for Protease activity Supernatant: culture supernatant, proteases above 10 KDa concentrated
# Source text: For the purpose of selecting the most efficient lactic acid bacteria having protease activity against glycinin, different strains of the genera Lactobacillus and Streptococcus were subject to the following hydrolysis assay.
# The substrate selected to carry out the process of hydrolysis was soy glycinin. Glycinin is the soy major protein extracted from soy flour after treatment with mercaptoethanol followed by two centrifugation steps as described in Thanh V. H. et al. (Major proteins of soybean seeds: a straightforward fractionation and their characterization. 1976. J Agric Food Chem 24: 1117-1121). Among the enzymatic sources used to degrade glycinin, ten strains were tested: 6 strains from Streptococcus genera (strains 2, 3, 4, 5, 6, 7) and 4 strains from Lactobacillus genera (strains 8, 9, 10 and 11). All these strains were grown in optimal medium (MRS for Lactobacillus strains and BHI for Streptococcus strains) during 17 h at 37° C. and the proteases with a molecular weight above 10 KDa both in supernatant and cells were concentrated to be used as enzymatic sources in glycinin hydrolysis assays. On one hand, proteases from the supernatant were obtained after centrifugation for 15 min at 4000 rpm. Then the supernatant was ultrafiltrated by 10 KDa and the top was resuspended in 2 ml with 50 mM citrate phosphate buffer pH 7. On the other hand, cells obtained from the different cultures were washed with saline solution for 15 min at 4000 rpm and resuspended in 50 mM citrate phosphate buffer pH 7 to evaluate the protease activity in cells and supernatant (Table 1).
# [2] = tested on: C. elegans wild type strain N2; assay: C. elegans body fat reduction, Nile Red staining; assay type: in vivo, Caenorhabditis elegans; conditions: for % Fluorescence Reduction C. elegans: synthesized peptides at 1 μg/mL of final concentration; for % Fluorescence Reduction: nematodes fed NG with peptides alone or in Savia soy fermented product, alone or mixed, 1 μg/mL final concentration, Nile Red
# Experimental: The ability to reduce body fat content in the nematode C. elegans was analyzed in a group of 5 peptide extracts previously obtained from glycinin (see Table 4). These samples were selected by their high effect on PL and PLA2 in vitro inhibition. Specifically, 5 peptide extracts were selected from the PLA2 inhibition assay (M20G, M5G, M31G, M27G and M29G). Body fat content was analyzed in the C. elegans wild type strain N2 by Red Nile dying of living nematodes. Experiments were carried out with age-synchronized populations, starting from egg-stage to young adult stage (3-day adults). During the experiments, worms were cultured in the NGM agar plates as control condition, NGM with the corresponding peptide extracts (100 μL/plate) and NGM with 6 μg/mL of Orlistat as positive control. Nile Red was added on top of the NG plates already seeded with Escherichia coli OP50 strain to a final concentration of 0.05 μg/ml. After incubation at 20° C., young adult worms (60 worms per condition) were taken to measure the in vivo fluorescence in a VersaFluor™ Fluorometer System. Fluorescence obtained in treated worms was calculated from fluorescence of worms fed in control conditions (reference sample). Experiments were carried out by duplicate.
# From these purified fractions, a total of 11 peptides were selected to be synthesized and evaluated in vivo in the obesity model of C. elegans (Table 9). All peptides were evaluated at 1 μg/mL of final concentration.
# We selected 5 peptides obtained from hydrolysis of glycinin with strain 6 (P8a, P6a, P14c, P16f, P14b) The peptides from glycinin were added to a soy fermented product (Savia® from Danone) both alone or mixed at final concentration of 1 μg/mL. Nematodes were fed with these products and then total lipids were quantified by Nile Red staining.
# [3] = In vitro enzymatic digestion model of the digestive tract (pepsin, pancreatin, bile), HPLC; assay type: in vitro ADME; conditions: for metabolised at 0.5 h / metabolised at 2 h / metabolised at 0.25 h / metabolised at 1 h / metabolised at 5 min: read-out: Degradation (%); for degradation in the in vitro digestion model (in words): HPLC, completely degraded = at the beginning of the intestinal phase, resistant ones finally degraded at the end; for metabolised at 0.25 h: Intestinal phase 15 min.; for metabolised at 1 h: Intestinal phase 60 min.
# Source text: An in vitro enzymatic digestion model of an in vivo digestive tract was developed for mimicking the physiological conditions to check and certify that each selected peptide was differently degraded throughout the gastro-intestinal tract by the digestive process. Pepsin, pancreatin and bile concentrations were optimized using a published experimental design (Granado-Lorencio et al (2007). J. Agri. Food. Chem., 55, 6387-6394).
# [4] = target: PLA2 (pancreatic phospholipase A2) (Homo sapiens, UniProt P04054); assay: PLA2 inhibition assay by HPLC with DOPC as substrate; assay type: biochemical
# Sequence of PLA2 (pancreatic phospholipase A2) (P04054 23-148, species assumed): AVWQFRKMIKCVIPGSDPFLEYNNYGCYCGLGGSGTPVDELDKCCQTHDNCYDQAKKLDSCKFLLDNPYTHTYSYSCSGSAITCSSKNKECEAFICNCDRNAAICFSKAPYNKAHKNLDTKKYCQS
# Experimental: Inhibition of PLA2 enzyme was determined by High Performance Liquid Chromatography (HPLC) using 1,2-dioleoyl-sn-glycero-3-phosphocholine (DOPC) as substrate as described by Singh et al. (A rapid isocratic high-performance liquid chromatography method for determination of cholesterol and 1,2-dioleoyl-sn-glycero-3-phosphocholine. Journal of Chromatography (2005); 1073:347-353). Waters 2695 HPLC with Waters 2996 Photodiode detector Array and a C8 column Hypersil BDS (250×4.6 mm, […]) were used carrying out an eluent isocratic method formed by a mixture of ammonium phosphate buffer 50 mM pH 2.7:methanol (15:85, v/v).
# [5] = target: T1, PL (pancreatic lipase) (Sus scrofa, UniProt P00591); assay: PL inhibition assay with 4-methyl umbelliferyl oleate (4MUO), fluorescence; assay type: biochemical; conditions: synthesized peptides
# T1 sequence (P00591 1-450): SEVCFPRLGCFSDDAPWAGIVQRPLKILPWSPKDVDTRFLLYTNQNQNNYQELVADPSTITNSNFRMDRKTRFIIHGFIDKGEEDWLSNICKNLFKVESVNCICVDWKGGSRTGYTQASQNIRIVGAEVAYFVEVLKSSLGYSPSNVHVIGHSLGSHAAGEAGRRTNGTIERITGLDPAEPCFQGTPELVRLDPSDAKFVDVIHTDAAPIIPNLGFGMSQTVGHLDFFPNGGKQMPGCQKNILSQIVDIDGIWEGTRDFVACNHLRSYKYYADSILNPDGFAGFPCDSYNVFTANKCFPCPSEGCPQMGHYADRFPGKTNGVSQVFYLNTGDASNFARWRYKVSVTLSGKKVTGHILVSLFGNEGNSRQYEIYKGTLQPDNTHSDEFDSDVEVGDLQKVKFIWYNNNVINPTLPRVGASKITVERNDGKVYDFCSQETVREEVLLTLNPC
# Experimental: Inhibition of PL was determined using 4-methyl umbelliferyl oleate (4MUO) as substrate as described by Sugiyama et al. (Oligomeric procyanidins in apple polyphenol are main active components for inhibition of pancreatic lipase and triglyceride absorption. J Agric Food Chem (2007); 55: 4604-4609) with some modifications. Aliquots of 25 μl of each peptide extract were incubated with 25 μl of PL solution (1 mg/ml) and preincubated for 10 minutes at 26° C. with stirring of 500 rpm. Reaction was initiated by adding 50 μl of 4MUO (0.1 mM) dissolved in Dulbecco's buffer. After incubation at 26° C. for 20 minutes with constant stirring (500 rpm) the reaction was stopped by adding 100 μl of 0.1 M sodium citrate buffer (pH 4.2). The amount of 4-methyl umbelliferone released by the enzyme was determined by fluorescence. Peptide extracts were used as inhibitors in the enzymatic assay but had to be diluted 1/20 or 1/50 because of the interference between the fluorescence and the buffer containing the peptides.
substance,measurement,setting,value
Lactobacillus paracasei paracasei CNCM I-4270 [Strain 10],Protease activity cell,[1],0.005 U.I./ml
same,Protease activity Supernatant,[1],0.016 U.I./ml
QDEDEDEDEDKPRPSRP (QDEDEDEDEDKPRPSRP; listed as Glycine soja) [Peptide P17c],% Fluorescence Reduction C. elegans,[2],18.13 ± 5.57%
"QGENEEEDSGAIVTVK [Peptide P16f, QGENEEEDSGAIVTVK]",% Fluorescence Reduction,[2],33.9 ± 5.7%
same,% Fluorescence Reduction C. elegans,[2],38.95 ± 8.7%
same,metabolised at 0.5 h,[3]; Gastric phase 30 min.,65.8%
same,metabolised at 2 h,[3]; Gastric phase 120 min.,95.2%
same,degradation in the in vitro digestion model (in words),[3],completely degraded
same,metabolised at 0.25 h,[3],100%
same,metabolised at 0.5 h,[3]; Intestinal phase 30 min.,100%
same,metabolised at 1 h,[3],100%
same,metabolised at 2 h,[3]; Intestinal phase 120 min.,100%
same,Degradation (%),[3]; Oral phase 5 min.,−1.2%
same,Percentage of PLA2 inhibition,[4]; peptide 0.035 mg/ml,13.6 ± 3.8%
same,Percentage of PLA2 inhibition,[4]; peptide 0.35 mg/ml,13.6 ± 0.4%
same,Percentage of PLA2 inhibition,[4]; peptide 2 mg/ml,15.9 ± 6.0%
same,Percentage of PLA2 inhibition,[4]; peptide 3.5 mg/ml,22.5 ± 3.7%
same,IC50,[5],262 µM
"QGENEGEDKGAIVT [Peptide P14b, QGENEGEDKGAIVT]",% Fluorescence Reduction,[2],30.25 ± 4.2%
same,% Fluorescence Reduction C. elegans,[2],35.30 ± 6.1%
same,metabolised at 0.5 h,[3]; Gastric phase 30 min.,6.7%
same,metabolised at 2 h,[3]; Gastric phase 120 min.,8.7%
same,degradation in the in vitro digestion model (in words),[3],resistant until the end of the process
same,metabolised at 0.25 h,[3],36.7%
same,metabolised at 0.5 h,[3]; Intestinal phase 30 min.,48.9%
same,metabolised at 1 h,[3],68.8%
same,metabolised at 2 h,[3]; Intestinal phase 120 min.,100%
same,metabolised at 5 min,[3]; Oral phase 5 min.,6%
same,Percentage of PLA2 inhibition,[4]; peptide 0.035 mg/ml,5.9 ± 5.0%
same,Percentage of PLA2 inhibition,[4]; peptide 0.35 mg/ml,22.2 ± 5.6%
same,Percentage of PLA2 inhibition,[4]; peptide 2 mg/ml,23.8 ± 5.5%
same,Percentage of PLA2 inhibition,[4]; peptide 3.5 mg/ml,28.8 ± 3.1%
same,IC50,[5],346 µM
"SDNFEY [Peptide P6a, SDNFEY]",% Fluorescence Reduction,[2],36.2 ± 4.1%
same,% Fluorescence Reduction C. elegans,[2],40.90 ± 11.6%
same,metabolised at 0.5 h,[3]; Gastric phase 30 min.,31%
same,metabolised at 2 h,[3]; Gastric phase 120 min.,66.9%
same,metabolised at 0.25 h,[3],100%
same,metabolised at 0.5 h,[3]; Intestinal phase 30 min.,100%
same,metabolised at 1 h,[3],100%
same,metabolised at 2 h,[3]; Intestinal phase 120 min.,100%
same,metabolised at 5 min,[3]; Oral phase 5 min.,23.7%
same,Percentage of PLA2 inhibition,[4]; peptide 0.035 mg/ml,10.6 ± 5.0%
same,Percentage of PLA2 inhibition,[4]; peptide 0.35 mg/ml,12.1 ± 4.0%
same,Percentage of PLA2 inhibition,[4]; peptide 2 mg/ml,24.5 ± 1.4%
same,Percentage of PLA2 inhibition,[4]; peptide 3.5 mg/ml,31.9 ± 5.5%
same,IC50,[5],55.6 µM
Streptococcus thermophilus CNCM I-1630 [Strain 7],Protease activity cell,[1],0.001 U.I./ml
same,Protease activity Supernatant,[1],0.003 U.I./ml
Streptococcus thermophilus CNCM I-2776 [Strain 6],Protease activity cell,[1],0.001 U.I./ml
same,Protease activity Supernatant,[1],0.006 U.I./ml
Streptococcus thermophilus CNCM I-2785 [Strain 3],Protease activity cell,[1],0.001 U.I./ml
same,Protease activity Supernatant,[1],0.009 U.I./ml
Streptococcus thermophilus CNCM I-2965 [Strain 2],Protease activity cell,[1],0.003 U.I./ml
same,Protease activity Supernatant,[1],0.005 U.I./ml
Streptococcus thermophilus CNCM I-3211 [Strain 5],Protease activity cell,[1],0.001 U.I./ml
same,Protease activity Supernatant,[1],0.003 U.I./ml
Streptococcus thermophilus CNCM I-4269 [Strain 4],Protease activity cell,[1],0.002 U.I./ml
same,Protease activity Supernatant,[1],0.001 U.I./ml
